System: Energy system protein genes
Test: DNA chip mRNA expression in yeast, energy system protein genes (Table 4)
Assay type: cell-based, Saccharomyces cerevisiae S288C
Summary of the method: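 Cells were grown at 25° C. in YPD, treated at logarithmic phase for 2 h with a chemical at a concentration inhibiting growth but not causing death, and compared with untreated cultures. Labeled cDNA was hybridized to a DNA chip carrying all yeast genes, and the expression ratio was taken from scanner fluorescence.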

COc1cc(CNC(=O)CCCCC=CC(C)C)ccc1O [(12), 8-methyl-N-vanillyl-6-nonenamide]
The level of expressed mRNA in the presence of chemical substance/The level of expressed mRNA in the absence of chemical substance (yeast gene YJR048W): 0.8 | The level of expressed mRNA in the presence of chemical substance/The level of expressed mRNA in the absence of chemical substance (yeast gene YJR121W, cells incubated two hours with the chemical substance): 0.8 | The level of expressed mRNA in the presence of chemical substance/The level of expressed mRNA in the absence of chemical substance (yeast gene YJR155W): 1.0 | The level of expressed mRNA in the presence of chemical substance/The level of expressed mRNA in the absence of chemical substance (yeast gene YKL016C, cells incubated two hours with the chemical substance): 1.0 | The level of expressed mRNA in the presence of chemical substance/The level of expressed mRNA in the absence of chemical substance (yeast gene YKL060C, cells incubated two hours with the chemical substance): 1.3 | The level of expressed mRNA in the presence of chemical substance/The level of expressed mRNA in the absence of chemical substance (yeast gene YKL141W, cells incubated two hours with the chemical substance): 0.8 | The level of expressed mRNA in the presence of chemical substance/The level of expressed mRNA in the absence of chemical substance (yeast gene YKL148C, cells incubated two hours with the chemical substance): 0.8 | The level of expressed mRNA in the presence of chemical substance/The level of expressed mRNA in the absence of chemical substance (yeast gene YKR009C, cells incubated two hours with the chemical substance): 1.0 | The level of expressed mRNA in the presence of chemical substance/The level of expressed mRNA in the absence of chemical substance (yeast gene YKR058W, cells incubated two hours with the chemical substance, 25° C., YPD medium): 0.9 | The level of expressed mRNA in the presence of chemical substance/The level of expressed mRNA in the absence of chemical substance (yeast gene YKR097W): 1.8 | The level of expressed mRNA in the presence of chemical substance/The level of expressed mRNA in the absence of chemical substance (yeast gene YLL041C, cells incubated two hours with the chemical substance): 0.8 | The level of expressed mRNA in the presence of chemical substance/The level of expressed mRNA in the absence of chemical substance (yeast gene YLR038C, cells incubated two hours with the chemical substance): 0.6 | The level of expressed mRNA in the presence of chemical substance/The level of expressed mRNA in the absence of chemical substance (yeast gene YLR044C, cells incubated two hours with the chemical substance): 1.4 | The level of expressed mRNA in the presence of chemical substance/The level of expressed mRNA in the absence of chemical substance (yeast gene YLR134W, cells incubated two hours with the chemical substance): 1.2 | The level of expressed mRNA in the presence of chemical substance/The level of expressed mRNA in the absence of chemical substance (yeast gene YLR258W, cells incubated two hours with the chemical substance): 0.9 | The level of expressed mRNA in the presence of chemical substance/The level of expressed mRNA in the absence of chemical substance (yeast gene YLR284C, cells incubated two hours with the chemical substance): 0.6 | The level of expressed mRNA in the presence of chemical substance/The level of expressed mRNA in the absence of chemical substance (yeast gene YLR295C, cells incubated two hours with the chemical substance, 25° C., YPD medium): 0.5 | The level of expressed mRNA in the presence of chemical substance/The level of expressed mRNA in the absence of chemical substance (yeast gene YLR304C, cells incubated two hours with the chemical substance): 1.0 | The level of expressed mRNA in the presence of chemical substance/The level of expressed mRNA in the absence of chemical substance (yeast gene YLR345W): 1.6 | The level of expressed mRNA in the presence of chemical substance/The level of expressed mRNA in the absence of chemical substance (yeast gene YLR354C, cells incubated two hours with the chemical substance): 1.2 | The level of expressed mRNA in the presence of chemical substance/The level of expressed mRNA in the absence of chemical substance (yeast gene YLR377C, cells incubated two hours with the chemical substance): 0.6 | The level of expressed mRNA in the presence of chemical substance/The level of expressed mRNA in the absence of chemical substance (yeast gene YLR395C, cells incubated two hours with the chemical substance): 0.6 | The level of expressed mRNA in the presence of chemical substance/The level of expressed mRNA in the absence of chemical substance (yeast gene YML054C): 1.8 | The level of expressed mRNA in the presence of chemical substance/The level of expressed mRNA in the absence of chemical substance (yeast gene YML087C): 0.8 | The level of expressed mRNA in the presence of chemical substance/The level of expressed mRNA in the absence of chemical substance (yeast gene YML120C, cells incubated two hours with the chemical substance): 0.9 | The level of expressed mRNA in the presence of chemical substance/The level of expressed mRNA in the absence of chemical substance (yeast gene YML129C, cells incubated two hours with the chemical substance): 0.8 | The level of expressed mRNA in the presence of chemical substance/The level of expressed mRNA in the absence of chemical substance (yeast gene YMR073C, cells incubated two hours with the chemical substance): 0.8 | The level of expressed mRNA in the presence of chemical substance/The level of expressed mRNA in the absence of chemical substance (yeast gene YMR118C): 0.8 | The level of expressed mRNA in the presence of chemical substance/The level of expressed mRNA in the absence of chemical substance (yeast gene YMR205C, cells incubated two hours with the chemical substance): 1.1 | The level of expressed mRNA in the presence of chemical substance/The level of expressed mRNA in the absence of chemical substance (yeast gene YMR261C, cells incubated two hours with the chemical substance): 0.9 | The level of expressed mRNA in the presence of chemical substance/The level of expressed mRNA in the absence of chemical substance (yeast gene YMR267W, cells incubated two hours with the chemical substance, 25° C., YPD medium): 0.8 | The level of expressed mRNA in the presence of chemical substance/The level of expressed mRNA in the absence of chemical substance (yeast gene YMR323W, cells incubated two hours with the chemical substance): 1.2 | The level of expressed mRNA in the presence of chemical substance/The level of expressed mRNA in the absence of chemical substance (yeast gene YNL071W): 1.3 | The level of expressed mRNA in the presence of chemical substance/The level of expressed mRNA in the absence of chemical substance (yeast gene YNL202W, cells incubated two hours with the chemical substance): 0.9 | The level of expressed mRNA in the presence of chemical substance/The level of expressed mRNA in the absence of chemical substance (yeast gene YNL241C): 2.0 | The level of expressed mRNA in the presence of chemical substance/The level of expressed mRNA in the absence of chemical substance (yeast gene YNL331C): 0.9 | The level of expressed mRNA in the presence of chemical substance/The level of expressed mRNA in the absence of chemical substance (yeast gene YOL086C, cells incubated two hours with the chemical substance): 1.3 | The level of expressed mRNA in the presence of chemical substance/The level of expressed mRNA in the absence of chemical substance (yeast gene YOL165C): 0.8 | The level of expressed mRNA in the presence of chemical substance/The level of expressed mRNA in the absence of chemical substance (yeast gene YOR142W, cells incubated two hours with the chemical substance): 0.8 | The level of expressed mRNA in the presence of chemical substance/The level of expressed mRNA in the absence of chemical substance (yeast gene YOR178C, cells incubated two hours with the chemical substance): 1.7 | The level of expressed mRNA in the presence of chemical substance/The level of expressed mRNA in the absence of chemical substance (yeast gene YOR388C, cells incubated two hours with the chemical substance): 0.7 | The level of expressed mRNA in the presence of chemical substance/The level of expressed mRNA in the absence of chemical substance (yeast gene YPL031C, cells incubated two hours with the chemical substance): 0.8 | The level of expressed mRNA in the presence of chemical substance/The level of expressed mRNA in the absence of chemical substance (yeast gene YPL061W, cells incubated two hours with the chemical substance): 1.0 | The level of expressed mRNA in the presence of chemical substance/The level of expressed mRNA in the absence of chemical substance (yeast gene YPL088W): 3.6 | The level of expressed mRNA in the presence of chemical substance/The level of expressed mRNA in the absence of chemical substance (yeast gene YPL171C): 1.4 | The level of expressed mRNA in the presence of chemical substance/The level of expressed mRNA in the absence of chemical substance (yeast gene YPL240C): 0.8 | The level of expressed mRNA in the presence of chemical substance/The level of expressed mRNA in the absence of chemical substance (yeast gene YPL262W, cells incubated two hours with the chemical substance): 1.1 | The level of expressed mRNA in the presence of chemical substance/The level of expressed mRNA in the absence of chemical substance (yeast gene YPL275W, cells incubated two hours with the chemical substance): 0.6 | The level of expressed mRNA in the presence of chemical substance/The level of expressed mRNA in the absence of chemical substance (yeast gene YPL276W, cells incubated two hours with the chemical substance): 0.6 | The level of expressed mRNA in the presence of chemical substance/The level of expressed mRNA in the absence of chemical substance (yeast gene YPR048W, cells incubated two hours with the chemical substance): 0.8 | The level of expressed mRNA in the presence of chemical substance/The level of expressed mRNA in the absence of chemical substance (yeast gene YPR184W, cells incubated two hours with the chemical substance): 1.4

Reference: US8192962B2, “Processes for detecting toxic substances” (Daikin Industries, Ltd., priority 2001, dated 2012)
